Reference: article PMC11219871, “Epigenetic-based differentiation therapy for Acute Myeloid Leukemia” (Nature Communications, 2024)

Target: T1, BRD3 (BD1) (Homo sapiens, UniProt Q15059)
T1 construct: BRD3 (BD1); purchased BPS Bioscience (contracted assay service)
Experiment: Epigenetic panel (BPS Bioscience)
Format: binding
Source text: The selectivity of CM-444 and CM-1758 against other epigenetic targets, including histone demethylase (JMJD2A, JMJD2B, JMJD2C, JMJD2D, JMJD2E, JMJD3, JMJD1A, LSD1, Jarid1A, Jarid1B, Jarid1C, FBXL10, FBXL11, JHDM1D, JMJD1B, PHF8, LSD2 and UTX); histone acetyltransferases (GCN5, P300); histone methyltransferases (G9a, GLP, MLL1, SET7/9, SUV39H1, SUV39H2, PRMT1, PRMT3, PRMT4, PRMT5, PRMT6, PRMT8, PRMT9, NSD1, NSD2, EZH1, EZH2, SETDB1, SETD2, SET8, SUV4-20H1, SMYD2, SMYD3, DOT1L, EZH2 (A677G), EZH2 (A677G), EZH2 (A738T), EZH2 (Y641S), EZH2 (P132S), EZH2 (Y641C), EZH2 (Y641F), EZH2 (Y641H), EZH2 (Y641N)); bromodomains (ATAD2B, ATAD2A, BRD1, BRD9, BPTF/FALZ, CeCR2, BRPF3, BRD3 (BD1 + BD2), BAZ2B, WDR9, TAF1 (BD2), TAF1L (BD2), TAF1L (BD1 + BD2), BRD2 (BD1), BRD2 (BD2), BRD2 (BD1 + BD2), BRD3 (BD1), BRD3 (BD2), BRD4 (BD1), BRD4 (BD2), BRD4 (BD1 + BD2), BRDT (BD1), BRDT (BD1 + BD2), CREBBP, SMARCA2A, SMARCA4/BRG1); DNA methyltranferases (DNMT1, DNMT3A/3L and DNMT3B/3L), and sirtuin histone deacetylases (SIRT1, SIRT2, SIRT3, SIRT5 and SIRT6), were determined by BPS Bioscience (http://www.bpsbioscience.com/index.ph). Binding experiments were performed in duplicate at a concentration of 10 μM.

T1 sequence (Q15059 34-140 limits assumed): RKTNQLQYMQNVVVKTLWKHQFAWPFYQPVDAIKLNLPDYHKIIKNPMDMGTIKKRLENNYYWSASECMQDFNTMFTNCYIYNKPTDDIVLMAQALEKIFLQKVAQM

| SMILES | inhibition at 10 µM [%] | IC50 [µM] |
| --- | --- | --- |
| COc1cc2nc(-c3ccc(C)o3)cc(NCC3CCN(c4ncc(C(=O)NO)cn4)CC3)c2cc1OC [CM-444, 2-[4-[[[6,7-dimethoxy-2-(5-methyl-2-furyl)-4-quinolyl]amino]methyl]-1-piperidyl]pyrimidine-5-carbohydroxamic acid] | 20 | – |
| COc1cc2nc(-c3cc(C)oc3C)cc(NCC3CCN(c4ncc(C(=O)NO)cn4)CC3)c2cc1OC [CM-1758, 2-[4-[[[2-(2,5-dimethyl-3-furyl)-6,7-dimethoxy-4-quinolyl]amino]methyl] -1-piperidyl]pyrimidine-5-carbohydroxamic acid] | 60 | > 50 |
